Assay results reported in paper PMC9583845, “Characterization of the chicken melanocortin 5 receptor and its potential role in regulating hepatic glucolipid metabolism” (Frontiers in Physiology, 2022).
“Also recorded” adds a separate entry of the source.

Legend:
[1] = system: ELOVL6 mRNA, primary chicken hepatocytes; test: ELOVL6 mRNA in primary chicken hepatocytes, RT-qPCR; assay type: cell-based; conditions: 6 h, N = 4, Figures 8A-C
Experimental: (§1) To evaluate the effect of ACTH1-39 on chicken liver, the chicken hepatocytes were prepared and maintained as a monolayer culture. Briefly, one-month-old male chicken hepatocytes were isolated by perfusion of a liver with Ca^2+-free KRB buffer to remove blood cells, and being digested with 0.25% collagenase-I for 10 min. Hepatocytes were obtained following filtering and washing using M199 medium. Then the hepatocytes were plated in a Corning CellBIND 48-well microplate (Corning, NY, cat. no.3338) with M199 medium containing 100 U/ml penicillin and […] streptomycin (Gibco), 5 μg/ml bovine insulin (Sigma), and 5% FBS at 37°C in a 5% CO2 atmosphere. To adhere to the wall, the cells were incubated on the 48-well plate for 4 h.
(§2) For quantitative real-time PCR, primary cultured chicken hepatocytes were treated with various concentrations of ACTH1-39 (or other composition) at 37°C for 6 h. The relative amount of mRNA was calculated using the comparative Ct method. Chicken β-actin gene was used as the reference gene. Amplification of specific transcripts was confirmed by analyzing the melting curve profile performed at the end of each run and by determining the size of the PCR products using agarose electrophoresis and ethidium bromide staining.

[2] = system: THRSPA mRNA, primary chicken hepatocytes; test: THRSPA mRNA in primary chicken hepatocytes, RT-qPCR; assay type: cell-based; conditions: 6 h, N = 4, Figures 8D-F
Experimental: as §1, §2

[3] = system: MC5R mRNA, primary chicken hepatocytes; test: MC5R mRNA in primary chicken hepatocytes, RT-qPCR; assay type: cell-based; conditions: primary chicken hepatocytes, 6 h, N = 4, vs β-actin, Figures 6C-E
Experimental: as §1, with “h. For quantitative real-time PCR, primary cultured chicken hepatocytes were treated with various concentrations of ACTH1-39 (or other composition) at 37°C for 6 h. The relative amount of mRNA was calculated using the comparative Ct method. Chicken β-actin gene was used as the reference gene. Amplification of specific transcripts was confirmed by analyzing the melting curve profile performed at the end of each run and by determining the size of the PCR products using agarose electrophoresis and ethidium bromide staining.” for “h.”

[4] = system: AC/cAMP/PKA signaling (cMC5R); test: Inhibition of ACTH- or α-MSH-stimulated luciferase activity in CHO cells expressing cMC5R; assay type: cell-based, chicken; conditions: for inhibition of ACTH-stimulated luciferase activity: inhibitor (H89 10 μM, MDL 5 μM) added 0.5 h before ACTH (10 nM, 6 h), Figure 2E; for inhibition of α-MSH-stimulated luciferase activity: inhibitor (H89 10 μM, MDL 5 μM) added 0.5 h before α-MSH (10 nM, 6 h), Figure 2F
Experimental: (§3) In brief, CHO cells were cultured on a six-well plate (Nunc, Roskilde, Denmark) and grown for 24 h before transfection. The cells were then transfected with a mixture containing 700 ng pGL3-CRE-Luciferase reporter construct, 200 ng of receptor expression plasmid (or empty pcDNA3.1 vector as a negative control), 20 ng of pRL-TK construct (containing a Renilla luciferase gene, used as an internal control), and 2 μl jetPRIME transfection reagent (Polyplus Transfection, Illkirch, France) in 200 μL buffer. Twenty-four hours later, CHO cells were sub-cultured into a 96-well plate at 37°C for an additional 24 h before treatment. After removal of the medium from the 96-well plate, the cells were treated with 100 μl ligand-containing medium (or ligand-free medium) for 6 h. Finally, CHO cells were lysed with 1 × passive lysis buffer for luciferase assay (Promega) and the luciferase activity of the cell lysate was measured by a Multimode Microplate Reader (TriStar LB941, EG&G Berthold, Germany) according to the manufacturer’s instruction.
To test whether cMRAP1 and cMRAP2 can alter the pharmacological properties of cMC5R, CHO cells co-expressing MC5R and cMRAP1/cMRAP2 were treated with chicken ACTH1–39/α-MSH, and the relative potential of these two peptides to activate the receptor was also determined using the pGL3-CRE-luciferase reporter system. At the same time, H89 (a PKA inhibitor, 10 μM) and MDL12330 A (an AC inhibitor, 5 μM) were used to further determine the signal pathways activated by ACTH1-39/α-MSH.

[5] = biological target: T1, chicken MC5R (Gallus gallus, UniProt O73671); test: pGL3-CRE-luciferase reporter assay, CHO cells expressing chicken MC5R; assay type: cell-based; conditions: for ability to activate / sensitivity of cMC5R (in words, ranking): CHO cells expressing cMC5R; for EC50: Figure 2B, CHO cells transiently expressing cMC5R, 10^−12–10^−6 M, 6 h, mean ± SEM of three replicates (N = 3), representative of three independent experiments, read-out: EC50 (activation of cMC5R)
T1 sequence (O73671 1-325): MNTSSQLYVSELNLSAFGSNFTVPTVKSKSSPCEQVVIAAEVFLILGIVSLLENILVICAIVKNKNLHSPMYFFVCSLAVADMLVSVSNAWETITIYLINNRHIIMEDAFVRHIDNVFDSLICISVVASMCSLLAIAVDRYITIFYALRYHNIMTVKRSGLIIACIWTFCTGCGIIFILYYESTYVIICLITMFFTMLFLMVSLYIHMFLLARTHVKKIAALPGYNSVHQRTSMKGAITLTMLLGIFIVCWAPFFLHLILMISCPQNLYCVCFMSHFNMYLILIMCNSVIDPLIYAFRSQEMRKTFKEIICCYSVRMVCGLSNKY
From the text: All chemicals were purchased from Sigma-Aldrich (St. Louis, MO, United States) and the restriction enzymes were obtained from TaKaRa (Dalian, China). […] All primers used in this study were synthesized by Beijing Genome Institute (BGI, China) and listed in Supplementary Table 1.
The expression plasmids encoding MC5R, MRAP1 and MRAP2 were established by cloning their entire open reading frame (ORF) into the pcDNA3.1 (+) expression vector (Invitrogen).
as §3, with “The” for “In brief, CHO cells were cultured on a six-well plate (Nunc, Roskilde, Denmark) and grown for 24 h before transfection. The”, “Twenty-four hours later, CHO cells were sub-cultured into a 96-well plate at 37°C for an additional 24 h before treatment.” left out
All statistical analysis was performed using GraphPad Prism 9 (Graph Pad Software Inc., San Diego, CA). The dose-response curves were constructed using nonlinear regression models. Student’s test was used to compare two groups, for more than two groups one-way ANOVA was performed followed by Dunnett’s test. To validate our results, all in-vitro experiments were repeated three times, and representative data are reported.

[6] = system: chicken MC5R D119A; conditions: ref Min et al., 2019; cited from earlier work
[7] = system: chicken MC5R F254A; conditions: ref Min et al., 2019; cited from earlier work
[8] = system: hMC5R + MRAP2; conditions: in vitro; ref Chan et al., 2009; cited from earlier work
From the text: Our results were consistent with previous results. […] In zebrafish, MRAP2a decreased the surface expression and efficacy of MC5Ra/MC5Rb, but not MRAP2b, in the same manner as mouse MRAP2 did ([Zhu et al., 2019]). In ricefield eel (Monopterus albus), two isoforms of MRAP2 (maMRAP2X1 and maMRAP2X2) significa ...

[9] = system: chicken MC5R D204A; conditions: ref Min et al., 2019; cited from earlier work
[10] = biological target: T1, chicken MC5R; parameters: method as in 3 sources, ref Ling et al., 2004 ||| ref Dores et al., 2020 ||| ref Schioth et al., 1997; Ling et al., 2004; conditions: ref Schioth et al., 1997; Ling et al., 2004; cited from earlier work
[11] = system: human MC5R; conditions: ref Schioth et al., 1997; Ling et al., 2004; cited from earlier work
From the text: The luciferase reporter system was then employed to investigate the signal pathway of MC5R coupling. […] Human peptides have previously been ...

Compound: Nc1ncnc2c1nc(Br)n2[C@@H]1O[C@@H]2COP(=O)(O)O[C@H]2[C@H]1O [8-Br-cAMP]
- ELOVL6 mRNA expression [1]: not affected; also recorded: did not affect the expression
- THRSPA mRNA expression [2]: not affected; also recorded: did not affect the expression
- MC5R mRNA abundance (in words) [3]: dose-dependent increase in MC5R mRNA abundance; also recorded: enhance the expression of MC5R in cultured hepatocytes in a dose-dependent manner

Compound: O=S(=O)(NCCNC/C=C/c1ccc(Br)cc1)c1cccc2cnccc12 [H89]
- inhibition of ACTH-stimulated luciferase activity [4]: significantly inhibit
- inhibition of α-MSH-stimulated luciferase activity [4]: significantly inhibit

Compound: Cl.c1ccc(C2CCCC2NC2=NCCCCCCCCCCC2)cc1 (stereo not drawn) [MDL12330 A]
- inhibition of ACTH-stimulated luciferase activity [4]: significantly inhibit
- inhibition of α-MSH-stimulated luciferase activity [4]: significantly inhibit

Compound: C=C[C@@]1(C)CC(=O)[C@]2(O)[C@@]3(C)[C@@H](O)CCC(C)(C)[C@@H]3[C@H](O)[C@H](OC(C)=O)[C@@]2(C)O1 [forskolin]
- ELOVL6 mRNA expression [1]: did not affect the expression
- ELOVL6 mRNA expression ([1]; listed as Forskolin): not affected
- THRSPA mRNA expression [2]: did not affect the expression
- THRSPA mRNA expression ([2]; listed as Forskolin): not affected
- MC5R mRNA abundance (in words) [3]: significantly increased MC5R mRNA abundance; also recorded: enhance the expression of MC5R in cultured hepatocytes in a dose-dependent manner

Compound: Ac-YVMSHFRWNKF-NH2 [γ-MSH]
- ability to activate / sensitivity of cMC5R (in words, ranking) [5]: ACTH1-39 ≈ α-MSH > β-MSH > γ-MSH
- EC50 [5]: 144 ± 15.4 nM

Compound: H-DGGSYRMRHFRWHAPLKD-OH [β-MSH]
- ability to activate / sensitivity of cMC5R (in words, ranking) [5]: ACTH1-39 ≈ α-MSH > β-MSH > γ-MSH
- EC50 [5]: 38.7 ± 6.51 nM

Compound: NDP-MSH
- response of D119A mutant [6]: completely unresponsive
- reactivity of F254A mutant [7]: significantly reduced the reactivity
- efficacy at hMC5R with MRAP2 [8]: reduced the efficacy of hMC5R to NDP-MSH
- response of D204A mutant [9]: completely unresponsive

Compound: SHU9119
- response of D119A mutant [6]: completely unresponsive
- response of D204A mutant [9]: completely unresponsive

Compound: hACTH1-39: human ACTH1-39 (SYSMEHFRWGKPVGKKRRPVKVYPNGAEDESAEAFPLEF; Corticotropin; UniProt P01189 138-176, looked up)
- ability of hACTH1-39 vs hACTH1-24 to activate chicken MC5R [10]: no different
- ability of hACTH1-39 vs hACTH1-24 to activate human MC5R [11]: no different
